Reference: ChEMBL document CHEMBL2157943, “Role of the side chain stereochemistry in the α-glucosidase inhibitory activity of kotalanol, a potent natural α-glucosidase inhibitor. Part 2” (Bioorg Med Chem, 2012)

How the values were obtained:
[1] = target: T1, Sucrase-isomaltase, intestinal (Rattus norvegicus, UniProt P23739); experiment: Inhibition of rat small intestinal sucrase after 30 mins by glucose-oxidase method
[2] = target: Sucrase-isomaltase, intestinal (Rattus norvegicus) (UniProt P23739); details: 100 ug/ml
Description: Inhibition of rat small intestinal sucrase at 100 ug/ml after 30 mins by glucose-oxidase method

[3] = target: T1, Sucrase-isomaltase, intestinal; experiment: Inhibition of rat small intestinal isomaltase after 30 mins by glucose-oxidase method
[4] = target: Lysosomal alpha-glucosidase (Rattus norvegicus) (UniProt Q6P7A9); details: 100 ug/ml
Chain of Lysosomal alpha-glucosidase (Rattus norvegicus) (Q6P7A9 whole entry): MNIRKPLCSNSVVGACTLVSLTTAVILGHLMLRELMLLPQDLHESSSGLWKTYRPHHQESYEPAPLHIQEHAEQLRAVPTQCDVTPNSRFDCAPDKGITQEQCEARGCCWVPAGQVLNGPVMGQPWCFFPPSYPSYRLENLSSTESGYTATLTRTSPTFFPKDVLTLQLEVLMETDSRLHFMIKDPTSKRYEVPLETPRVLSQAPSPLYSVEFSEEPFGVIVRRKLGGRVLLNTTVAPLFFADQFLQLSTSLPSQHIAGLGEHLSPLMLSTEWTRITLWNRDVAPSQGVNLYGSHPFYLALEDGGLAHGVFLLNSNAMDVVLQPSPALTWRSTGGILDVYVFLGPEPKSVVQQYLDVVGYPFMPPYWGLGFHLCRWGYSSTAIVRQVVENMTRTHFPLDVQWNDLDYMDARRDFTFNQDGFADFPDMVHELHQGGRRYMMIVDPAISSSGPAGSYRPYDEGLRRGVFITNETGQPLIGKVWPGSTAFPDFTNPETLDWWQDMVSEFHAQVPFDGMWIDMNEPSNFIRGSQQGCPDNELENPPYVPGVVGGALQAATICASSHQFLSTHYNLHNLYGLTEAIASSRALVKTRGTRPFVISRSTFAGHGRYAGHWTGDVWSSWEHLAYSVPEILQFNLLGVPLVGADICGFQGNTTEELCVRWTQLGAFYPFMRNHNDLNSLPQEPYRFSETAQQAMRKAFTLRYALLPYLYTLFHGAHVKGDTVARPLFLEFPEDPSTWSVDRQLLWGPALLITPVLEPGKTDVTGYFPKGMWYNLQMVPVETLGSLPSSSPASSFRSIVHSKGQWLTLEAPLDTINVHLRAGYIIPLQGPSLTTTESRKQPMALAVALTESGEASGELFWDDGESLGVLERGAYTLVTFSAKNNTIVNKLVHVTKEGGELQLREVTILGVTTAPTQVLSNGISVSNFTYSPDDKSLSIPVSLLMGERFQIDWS
Description: Inhibition of rat small intestinal maltase at 100 ug/ml after 30 mins by glucose-oxidase method

T1 sequence (P23739 1-1013 limits assumed): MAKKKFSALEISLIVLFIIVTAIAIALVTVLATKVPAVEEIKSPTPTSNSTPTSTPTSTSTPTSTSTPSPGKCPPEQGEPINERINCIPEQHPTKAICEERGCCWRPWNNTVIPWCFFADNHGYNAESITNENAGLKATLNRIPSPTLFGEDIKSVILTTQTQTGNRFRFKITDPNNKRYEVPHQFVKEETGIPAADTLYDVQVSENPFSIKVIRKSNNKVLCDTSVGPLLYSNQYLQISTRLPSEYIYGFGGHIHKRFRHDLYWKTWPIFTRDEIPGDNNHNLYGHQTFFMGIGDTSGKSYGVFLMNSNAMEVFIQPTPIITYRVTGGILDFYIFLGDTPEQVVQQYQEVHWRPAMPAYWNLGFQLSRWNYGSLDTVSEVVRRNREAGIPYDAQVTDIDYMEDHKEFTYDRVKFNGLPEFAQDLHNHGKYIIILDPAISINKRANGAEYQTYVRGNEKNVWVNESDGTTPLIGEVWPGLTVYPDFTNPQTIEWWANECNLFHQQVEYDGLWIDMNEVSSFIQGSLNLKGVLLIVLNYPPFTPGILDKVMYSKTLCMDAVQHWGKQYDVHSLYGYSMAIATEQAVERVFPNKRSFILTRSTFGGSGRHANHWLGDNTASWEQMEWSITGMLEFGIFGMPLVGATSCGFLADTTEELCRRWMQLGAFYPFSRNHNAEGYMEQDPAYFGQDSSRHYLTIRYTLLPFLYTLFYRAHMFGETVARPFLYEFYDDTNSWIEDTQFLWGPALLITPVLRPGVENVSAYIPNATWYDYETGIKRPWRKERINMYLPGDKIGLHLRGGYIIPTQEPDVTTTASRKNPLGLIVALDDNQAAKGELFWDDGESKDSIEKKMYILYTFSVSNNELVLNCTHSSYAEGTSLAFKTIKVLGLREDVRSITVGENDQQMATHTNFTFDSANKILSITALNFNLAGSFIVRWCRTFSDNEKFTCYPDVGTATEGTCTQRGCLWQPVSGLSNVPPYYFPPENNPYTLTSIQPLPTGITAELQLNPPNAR
T1 sequence (P23739 1014-1841 limits assumed): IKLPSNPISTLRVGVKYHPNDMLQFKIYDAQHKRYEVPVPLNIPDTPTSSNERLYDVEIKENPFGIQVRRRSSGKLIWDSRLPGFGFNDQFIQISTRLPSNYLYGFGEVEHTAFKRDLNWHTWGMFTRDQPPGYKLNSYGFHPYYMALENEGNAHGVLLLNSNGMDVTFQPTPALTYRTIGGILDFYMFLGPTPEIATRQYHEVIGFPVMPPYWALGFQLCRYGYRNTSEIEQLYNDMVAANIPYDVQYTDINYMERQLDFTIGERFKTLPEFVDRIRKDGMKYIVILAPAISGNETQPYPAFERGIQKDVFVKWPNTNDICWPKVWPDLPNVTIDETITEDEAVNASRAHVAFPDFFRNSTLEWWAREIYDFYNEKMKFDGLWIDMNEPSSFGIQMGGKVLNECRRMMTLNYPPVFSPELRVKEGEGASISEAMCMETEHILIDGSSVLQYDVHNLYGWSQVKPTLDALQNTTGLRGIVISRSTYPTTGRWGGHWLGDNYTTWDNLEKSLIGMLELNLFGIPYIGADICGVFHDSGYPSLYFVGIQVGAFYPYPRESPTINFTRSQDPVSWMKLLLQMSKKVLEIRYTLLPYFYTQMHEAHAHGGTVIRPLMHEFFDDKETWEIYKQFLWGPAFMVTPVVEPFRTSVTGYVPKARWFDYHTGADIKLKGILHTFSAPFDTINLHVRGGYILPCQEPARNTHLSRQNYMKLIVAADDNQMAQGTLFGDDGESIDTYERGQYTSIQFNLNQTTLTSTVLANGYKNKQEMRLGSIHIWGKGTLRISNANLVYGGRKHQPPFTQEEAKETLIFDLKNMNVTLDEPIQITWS
Chain of Sucrase-isomaltase, intestinal (Rattus norvegicus) (P23739 1-1013 limits assumed): as the sequence (P23739 1-1013 limits assumed) above
Chain of Sucrase-isomaltase, intestinal (Rattus norvegicus) (P23739 1014-1841 limits assumed): as the sequence (P23739 1014-1841 limits assumed) above

| SMILES | IC50 [1] [µM] | inhibition [2] [%] | IC50 [3] [µM] | inhibition [4] [%] |
| --- | --- | --- | --- | --- |
| O=S(=O)([O-])O[C@H]([C@@H](O)[C@@H](O)[C@H](O)CO)[C@H](O)C[S@+]1C[C@@H](O)[C@H](O)[C@H]1CO (mixture of isomers) | > 236 | 8 | 16 | 25 |
| O=S(=O)([O-])O[C@H]([C@@H](O)[C@@H](O)[C@@H](O)CO)[C@H](O)C[S@+]1C[C@@H](O)[C@H](O)[C@H]1CO | > 236 | 34 | 21 | 45 |
| O=S(=O)([O-])O[C@@H]([C@@H](O)[C@@H](O)[C@H](O)CO)[C@H](O)C[S@+]1C[C@@H](O)[C@H](O)[C@H]1CO | 67 | – | 1.6 | – |
| O=S(=O)([O-])O[C@@H]([C@@H](O)[C@H](O)[C@@H](O)CO)[C@H](O)C[S@+]1C[C@@H](O)[C@H](O)[C@H]1CO | 136 | – | 11 | 42 |
| O=S(=O)([O-])O[C@H]([C@@H](O)[C@H](O)[C@@H](O)CO)[C@H](O)C[S@+]1C[C@@H](O)[C@H](O)[C@H]1CO | > 236 | 28 | 20 | 32 |

Results, then the molecule that gave them:

| IC50 [1] [µM] | inhibition [2] [%] | IC50 [3] [µM] | inhibition [4] [%] | SMILES |
| --- | --- | --- | --- | --- |
| 214 | – | 16 | 44 | O=S(=O)([O-])O[C@@H]([C@@H](O)[C@H](O)[C@H](O)CO)[C@H](O)C[S@+]1C[C@@H](O)[C@H](O)[C@H]1CO |
| 32 | – | 6.5 | – | O=S(=O)([O-])O[C@@H]([C@@H](O)[C@@H](O)[C@@H](O)CO)[C@H](O)C[S@+]1C[C@@H](O)[C@H](O)[C@H]1CO |
| 55 | – | 58 | – | O=S(=O)([O-])O[C@H]([C@@H](O)[C@H](O)[C@H](O)CO)[C@H](O)C[S@+]1C[C@@H](O)[C@H](O)[C@H]1CO |
